Assay results as given in PMC10899790, “A bromodomain-independent mechanism of gene regulation by the BET inhibitor JQ1: direct activation of nuclear receptor PXR” (Nucleic Acids Research, 2023).

What was measured:
[1] = test system: PXR; assay: RNA induction in HepaRG: PXR RNA (RT-qPCR); assay type: cell-based, human; settings: differentiated HepaRG, 24 h; FC relative to DMSO
Description: (§1) Experiments with HepaRG cells were conducted similarly to previously described ([45]), with modifications. HepaRG cells were seeded in collagen-coated 24-well plates at 5 × 10^5 cells/well in HCM. Cells were differentiated for two weeks with HCM containing 2% DMSO. The cells were then treated with the respective chemicals for 24 h in HCM. The final DMSO concentration for the treatment was 0.5%. Total RNA was isolated from cells with Maxwell 16 LEV SimplyRNA Tissue Kits (Promega), and cDNA was generated from 250 ng of RNA with the SuperScript VILO cDNA Synthesis Kit (Thermo Fisher Scientific). Quantitative real-time polymerase chain reaction (RT-qPCR) was conducted with 2 μl of cDNA using TaqMan Fast Advanced Master Mix (Applied Biosystems) in an Applied Biosystems 7500 Fast Real-Time PCR System. TaqMan gene expression assays specific for CYP3A4 (Hs00604506_m1), PXR (Hs01114267_m1), MYC (Hs00153408_m1) and RNA18S (Hs03928990_g1) were purchased from Thermo Fisher Scientific. Fold induction values were calculated according to the 2^−ΔΔCt method, where ΔCt represents the differences in cycle threshold numbers between the target gene and reference gene and ΔΔCt represents the relative change in these differences between the control and treatment groups ([46]). RNA18S was used as the reference gene for relative quantification of all other genes.

[2] = test system: CYP3A4; assay: RNA induction in HepaRG: CYP3A4 mRNA (RT-qPCR); settings: differentiated HepaRG, 24 h
Description: as §1

[3] = LC–MS/MS test of JQ1 stability in crystallization solution; assay type: physicochemical; settings: 1 μM JQ1, crystallization solution pH 7.4, 20°C
Description: An Echo 650 Acoustic Liquid Handler was used to dispense 50 nl/well of 1 mM JQ1 into 96-well assay plates (Corning Inc., one plate per time point, six replicate wells per time point). Crystallization solution (50 μl) was added to each well to yield final concentrations of 1 μM JQ1 and 0.1% DMSO. […] This composition matched the final composition of a crystallization drop containing a 1:1 ratio of protein to reservoir solution. To the 0-day plate, 100 μl cold acetonitrile (ACN) containing 400 ng/ml warfarin (Fluka Chemical Corporation) as the internal standard was immediately added to each well. The remaining plates were incubated at 20°C for 1–8 days followed by quenching with 100 μl cold ACN containing 400 ng/ml warfarin. Quenched samples were sealed and stored at -20°C until analysis. On the day of analysis, plates were thawed, shaken at 600 rpm for 10 min, and centrifuged at 2000 × g for 10 min. The supernatants (20 μl) were transferred to a new analytical 96-well plate (Corning Inc.) and diluted with 180 μl 50% ACN in Milli-Q water. Chromatographic separation was performed on an ACQUITY UPLC BEH C18 column (1.7 μm, 2.1 mm × 50 mm) (Waters Corporation) using the Triple Quad 6500 System (AB Sciex). The injection volume was 7 μl. […] Data were acquired using Analyst Software (AB Sciex, version 1.6.3) and analyzed using MultiQuant Software (AB Sciex, version 3.0.3).

[4] = test system: PGK promoter; assay: PGK promoter firefly luciferase reporter; assay type: cell-based, human; settings: HepG2, 24 h
[5] = test system: CYP3A4; settings: cited from earlier work
[6] = biological target: T1, mouse PXR (mPXR) (Mus musculus, UniProt O54915); settings: mPXR-transfected HepG2, 24 h; PCN as 100% control
T1 sequence (O54915 1-431): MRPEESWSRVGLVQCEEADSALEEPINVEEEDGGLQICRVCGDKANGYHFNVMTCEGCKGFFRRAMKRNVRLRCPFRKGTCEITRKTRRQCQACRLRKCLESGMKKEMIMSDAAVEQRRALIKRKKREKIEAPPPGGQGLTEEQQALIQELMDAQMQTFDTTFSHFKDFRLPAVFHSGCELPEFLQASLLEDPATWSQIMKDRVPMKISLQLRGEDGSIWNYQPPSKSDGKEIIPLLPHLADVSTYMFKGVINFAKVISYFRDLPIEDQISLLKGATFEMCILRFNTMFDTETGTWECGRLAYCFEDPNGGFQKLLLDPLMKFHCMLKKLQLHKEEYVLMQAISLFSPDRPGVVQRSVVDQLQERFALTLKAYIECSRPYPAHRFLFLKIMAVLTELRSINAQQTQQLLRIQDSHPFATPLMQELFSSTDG
Description: Assays were performed similarly as previously described with minor modifications ([30–32]). HepG2 cells (7.5 × 10^5/well) were plated in six-well tissue culture-treated plates. The following day, cells were co-transfected with pGL3-CYP3A4-luc (2 μg/well), pRL-CMV (200 ng/well) and 100 ng/well of either empty vector (pcDNA3), pcDNA3-FLAG-PXR, pCMV6-mPXR or pGL4.53-PGK-PXR using Lipofectamine 3000 (Thermo Fisher Scientific). Twenty-four hours after transfection, cells were trypsinized and suspended in phenol red-free DMEM (Thermo Fisher Scientific) supplemented with 5% charcoal/dextran-treated FBS (HyClone), and 1 × 10^4 cells/well in 25 μl media were added to white 384-well plates. […] After 24 h, the Dual-Glo Luciferase Assay System (Promega) and EnVision microplate reader (PerkinElmer) were used to measure firefly and Renilla luciferase activities. CMV-driven Renilla luciferase was used as an indicator of general transcriptional modulation by the test compounds and is plotted as fold change (FC) relative to DMSO controls. Assays utilizing pGL4.54[luc2/TK], pGL4.53[luc2/PGK], or pGL4.13[luc2/SV40] were similarly performed and normalized. For the PXR-responsive CYP3A4-luciferase reporter, the measured relative light units (RLU) were normalized for each well using equation (1),
RLUT0901317 represents the measured RLU from wells containing 1 μM T0901317. […]

Cc1sc2c(c1C)C(c1ccc(Cl)cc1)=N[C@@H](CC(=O)OC(C)(C)C)c1nnc(C)n1-2 [JQ1, (+)-JQ1]
PXR RNA expression [1]: greatly reduced PXR RNA | endogenous CYP3A4 mRNA expression ([2]; FC relative to DMSO): modestly induced CYP3A4 mRNA | endogenous CYP3A4 mRNA expression on co-treatment with SPA70 ([2]; co-treated with SPA70): largely diminished | stability in the crystal growth condition [3]: does not degrade over a period of eight days | PGK promoter-driven luciferase expression [4]: not positively modulated | CYP3A4 substrate [5]: is a CYP3A4 substrate | activation of CYP3A4-luciferase reporter in the presence of mPXR [6]: did not activate the CYP3A4-luciferase reporter in the presence of mPXR
